Results as given in PubChem BioAssay (NCI).
Several values for one entry are separate records, joined by “and”; a condition that tells them apart may be missing. Equal entries are not always repeated.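 These data come from cells grown in 96-well plates and exposed to compound for 48 hours at five concentrations. GI50: concentration for 50% inhibition of growth. TGI: concentration producing complete growth inhibition.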

What was measured:
Experiment in all cases: NCI tumour cell line growth inhibition, 48 h
A549 NSCLC = tested on: A549 NSCLC
UACC-62 melanoma = tested on: UACC-62 melanoma
OVCAR-8 ovarian = tested on: OVCAR-8 ovarian
HCT-15 colon = tested on: HCT-15 colon
EKVX NSCLC = tested on: EKVX NSCLC
HS 578T breast = tested on: HS 578T breast
HOP-62 NSCLC = tested on: HOP-62 NSCLC
MALME-3M melanoma = tested on: MALME-3M melanoma
SF-539 CNS = tested on: SF-539 CNS
OVCAR-5 ovarian = tested on: OVCAR-5 ovarian

Structure (SMILES)	GI50 (A549 NSCLC)	TGI (A549 NSCLC)	GI50 (UACC-62 melanoma)	TGI (UACC-62 melanoma)	GI50 (OVCAR-8 ovarian)	TGI (OVCAR-8 ovarian)	GI50 (HCT-15 colon)	TGI (HCT-15 colon)	GI50 (EKVX NSCLC)	TGI (EKVX NSCLC)	GI50 (HS 578T breast)	TGI (HS 578T breast)	GI50 (HOP-62 NSCLC)	TGI (HOP-62 NSCLC)	GI50 (MALME-3M melanoma)	TGI (MALME-3M melanoma)	GI50 (SF-539 CNS)	TGI (SF-539 CNS)	GI50 (OVCAR-5 ovarian)	TGI (OVCAR-5 ovarian)
CCOC(=O)/C(=C\c1ccc2ccccc2c1)P(=O)(OCC)OCC	3.08 µM	11.6 µM	2.33 µM	8.53 µM	3.26 µM	13.2 µM	1.7 µM	4.45 µM	4.28 µM	16 µM	7.17 µM	75.8 µM	2.61 µM	7.24 µM	2.52 µM	7.95 µM	2.29 µM	5.17 µM	3.95 µM	13.9 µM
NCCCN=c1ccc2c3c1c(O)c1c(O)ccc(=O)c1c3[nH]n2CCNCCO	0.571 µM and 0.304 µM	12.3 µM and 21.8 µM	0.792 µM	5.66 µM and 6.48 µM	3.34 µM and 1.15 µM	15.7 µM and 20 µM	1.4 µM	25 µM and 112 µM	6.08 µM and 4.62 µM	17.9 µM and 42 µM	1.77 µM	4.8 µM	0.484 µM	11.1 µM and 9.68 µM		6 µM	0.854 µM and 1.53 µM	5.31 µM and 7.66 µM		17.4 µM and 17.2 µM
CCOC(=O)c1c(CN2CCN(C)CC2)nc2ccc(Cl)cc2c1-c1ccccc1	14.1 µM	28.5 µM	2.35 µM	7.76 µM	15.2 µM	29.6 µM	5.42 µM	20.9 µM	8.02 µM	25 µM	4.69 µM	23.1 µM	11.2 µM	25 µM	1.75 µM	4.09 µM	8.72 µM	21 µM	10.8 µM	25 µM
O=c1cccc(Cl)[nH]1		> 100 µM		> 100 µM		> 100 µM		> 100 µM		> 100 µM		> 100 µM		> 100 µM		> 100 µM		> 100 µM		> 100 µM
Cc1nc2ccccc2c(=O)n1/N=C(\N=Nc1cc(Cl)ccc1Cl)c1ccccc1		> 100 µM		> 100 µM		> 100 µM		> 100 µM		> 100 µM		> 100 µM		> 100 µM		> 100 µM		> 100 µM		> 100 µM
COc1cc2cc(Oc3cccc(NC(=O)Nc4cc(C(F)(F)F)cc(C(F)(F)F)c4)c3)c(C)nc2cc1OC	1.42 µM	4.75 µM	0.561 µM	2.09 µM	1.63 µM	4.22 µM	0.668 µM	2.04 µM	1 µM	2.98 µM	2.65 µM	6.94 µM	1.35 µM	2.88 µM	1.1 µM	3.46 µM	1.45 µM	3.21 µM	1.93 µM	4.14 µM
COc1cc2ncnc(Oc3cccc(NC(=O)Nc4cc(C(C)(C)C(F)(F)F)on4)c3)c2cc1OC	1.9 µM and 2.74 µM	40.8 µM and > 10 µM	0.0628 µM and 0.0978 µM	1.59 µM and 1.34 µM	2.54 µM and 3.09 µM	21.5 µM and > 10 µM	2.16 µM and 2.67 µM	12.5 µM and > 10 µM	1.52 µM	> 10 µM	1.77 µM and 1.47 µM	10.2 µM and > 7.23 µM	2.45 µM and 2.53 µM	16.8 µM and > 10 µM	0.0645 µM and 0.0851 µM	0.929 µM and 1.17 µM	2.75 µM and 3.14 µM	12.9 µM and > 10 µM	1.1 µM and 1.01 µM	10.5 µM and > 10 µM
